These results are taken from US8513161B2, “Enhancement of plant growth” (Valent Biosciences Corporation, priority 2007, dated 2013).

Assay [1] deals with sorghum. The assay is described as follows: Field study, seed treatment of sorghum. In kind it is in vivo. How it is done:
(§1) For the field studies, the seed was treated with a seed treatment formulation containing clothianidin. The rate of clothianidin was dependent on the crop species. The seed treatment formulations were amended with the appropriate concentrations of either PESA or the sodium salt of PESA. Crops were planted and grown under standard agricultural practices, and evaluated at the times indicated. The sodium salt of PESA was prepared as described above, and was used in seed treatment either alone or in the presence of clothianidin. Sorghum seed was treated with 0 or 200 grams of clothianidin/100 kg (220 pound) of seed and with 0, 22, 55, or 137.5 grams PESA salt/100 kg seed.

The test system of assay [2] is cotton. Nature of the assay: Continuous exposure pouch study, PESA salt and clothianidin on cotton. In kind it is in vivo. How it is done: (§2) Seeds were placed in germination pouches consisting of germination paper hydrated with sterile water that was an insert in a gas-permeable 16×14 cm plastic pouch (CYG Pouch; Mega International, St. Paul, Minn.). In these examples, in pouch solution evaluation, clothianidin and PESA sodium salt were added to the sterile water in the pouch. Alternatively, imidacloprid or dinotefuran and PESA sodium salt were added to the sterile water in the pouch. The pouches were arranged in a completely randomized block design in growth racks and placed in 19-liter polycarbonate food storage containers (Rubbermaid Commercial Products, Winchester, Va.). The sealed containers were held in an upright growth cabinet maintained at 25 C with a 12 hour light: 12 hour dark photoperiod. After 6 days, the containers were removed from the growth cabinet, and the lengths of the roots and shoot were measured.

Assay [3] deals with soybean. Nature of the assay: Field study, seed treatment of soybean. In kind it is in vivo. How it is done:
as §1, with “Soybean” for “Sorghum”, “50” for “200”

Assay [4] has as its system maize. The assay is described as follows: Field study, seed treatment of maize. In kind it is in vivo, Zea mays. How it is done: For the field studies, the seed was treated with a seed treatment formulation containing clothianidin. The rate of clothianidin was dependent on the crop species. The seed treatment formulations were amended with the appropriate concentrations of either PESA or the sodium salt of PESA. Crops were planted and grown under standard agricultural practices, and evaluated at the times indicated. The PESA or the sodium salt of PESA was prepared as described above, and was used in seed treatment either alone or in the presence of clothianidin. Maize (Zea mays) seed was treated with 0 or 0.25 milligrams of clothianidin/seed and with 0, 22, 55, or 137.5 grams PESA salt/100 kg seed.

Assay [5] concerns cotton. The assay is described as follows: Pouch assay of cotton after PESA salt and clothianidin seed treatments. In kind it is in vivo. As to conditions: seed treatment; for shoot length of cotton: control 3.7; for root length of cotton: control 9.6. How it is done:
(§3) Seed was sieved with a screen of hole size appropriate to remove broken seeds and small trash. Cracked or otherwise damaged seeds were removed. The seed was well mixed, and 50 g samples were weighed into small plastic trays. Seed treatment slurries were made by adding measured amounts of the active ingredients to sufficient water to bring them up to a standard volume, typically 2 ml. A fungicide (Maxim XL; Syngenta Agricultural Products, Greensboro, N.C.), a polymeric binder (CF-Clear; Becker-Underwood, Ames, Iowa), and a colorant (Color Coat Red; Becker-Underwood, Ames, Iowa) were also included in the slurry at label rates. A small aliquot of this slurry was applied to the seed using the Hege 11 coater (Wintersteiger, Salt Lake City, Utah) with a six-inch bowl. The slurry was deposited drop-wise on the spinning disk atomizer using a syringe.
as §2

Assay [6] has as its system canola. The assay is described as follows: Field study, seed treatment of canola. In kind it is in vivo, Brassica napus. How it is done: as §1, with “Canola (Brassica napus)” for “Sorghum”, “400” for “200”
The test system of assay [7] is cotton. Nature of the assay: Continuous exposure pouch study, PESA salt and imidacloprid on cotton. In kind it is in vivo. How it is done: as §2, with “measured. […] Root lengths of the control and combination treatment of imidacloprid with 100 mg/liter PESA salt were similar.” for “measured.”
Assay [8] deals with rice. The assay is described as follows: Pouch study of rice, imidacloprid seed treatment with PESA salt solution in pouch. In kind it is in vivo. As to conditions: for shoot length of rice: control 3.3; for root length of rice: control 10.7. How it is done:
as §3, §2
Root lengths of the control and combination treatment of 200 grams imidacloprid/100 pounds of seed with 50 mg/liter PESA salt were similar.

The mark [9] stands for this setting: clothianidin 182 g/100 pounds of seed alone.
[10] abbreviates: clothianidin 364 g/100 pounds of seed alone.
The mark [11] stands for this setting: imidacloprid 200 g/100 pounds of seed alone.
Where [12] appears, read: imidacloprid 400 g/100 pounds of seed alone.
Setting [13] is: imidacloprid 800 g/100 pounds of seed alone.

With `CN/C(=N\[N+](=O)[O-])NCc1cnc(Cl)s1` [Clothianidin, (E)-1-(2-chloro-1,3-thiazol-5-ylmethyl)-3-methyl-2-nitroguanidine, reference compound], the “root dry weight of a sample of 10 sorghum plants” value in assay [1] (73 days after planting, clothianidin 200 g/100 kg seed alone, control 148.5) is 108.7 grams. Besides, in assay [1] (clothianidin alone, 200 g/100 kg seed), the “effect on sorghum root dry weight” value is on record as “reduced root dry weight as compared to the control”. For the same molecule, the “effect on cotton root length” value in assay [2] (continuous exposure pouch, substance alone) was “decreased the length of the root”; in assay [5] (clothianidin alone 182 or 364 g/100 pounds of seed), “reduced cotton root length”. The “effect on cotton shoot length” value in assay [2] (continuous exposure pouch, clothianidin alone) is reported as “not affected”; in assay [5] (Table 2) it was “increased cotton shoot length”. Also, the “shoot length of cotton” value in assay [2] (in pouch, clothianidin 1000 mg/liter alone, control 6.1) stood at 6.1 cm; in assay [5] (setting [9]), 4.1 cm; in assay [5] (setting [10]), 4.2 cm. Further, the “root length of cotton” value in assay [2] (in pouch, clothianidin 1000 mg/liter alone, control 11.4) was 8.9 cm; in assay [5] (setting [9]), 7.8 cm; in assay [5] (setting [10]), 7.9 cm. For the same molecule, the “average plant height of soybean” value in assay [3] (66 days after planting, clothianidin 50 g/100 kg seed alone, control 23.8) stood at 21.6 inches. For the same molecule, the “effect on soybean plant height” value in assay [3] (clothianidin alone, 50 g/100 kg seed) is given as “reduced plant height as compared to the control”. In addition, the “vigor rating of maize plants, Vigor (1-5)” value in assay [4] (27 days after planting, clothianidin 0.25 mg/seed alone, control 3.6) was 3.1. The “effect on maize plant vigor” value in assay [4] (clothianidin alone, 0.25 mg/seed) is given as “reduced plant vigor as compared to the control”. Moreover, the “vigor rating (1 = low and 5 = high) of canola plants” value in assay [6] (19 days after planting, clothianidin 400 g/100 kg seed alone, control 3.8) turned out to be 2.5. Further, the “effect on canola plant vigor” value in assay [6] (clothianidin alone, 400 g/100 kg seed) is given as “reduced plant vigor as compared to the control”.
In the case of `O=[N+]([O-])N=C1NCCN1Cc1ccc(Cl)nc1` [Imidacloprid, (EZ)-1-(6-chloro-3-pyridylmethyl)-N-nitroimidazolidin-2-ylideneamine], in assay [7] (continuous exposure pouch, imidacloprid 1000 mg/liter alone), the “effect on cotton root length” value is on record as “decreased root length”. In addition, the “effect on cotton shoot length” value in assay [7] (imidacloprid alone) is “not affected”. Besides, the “shoot length of cotton” value in assay [7] (in pouch, imidacloprid 1000 mg/liter alone, control 6.2) worked out at 6.0 cm. In assay [7] (in pouch, imidacloprid 1000 mg/liter alone, control 13.3), the “root length of cotton” value amounted to 7.7 cm. In addition, the “shoot length of rice” value in assay [8] (setting [11]) amounted to 3.6 cm; in assay [8] (setting [12]), 3.3 cm; in assay [8] (setting [13]), 3.6 cm. For the same molecule, the “root length of rice” value in assay [8] (setting [11]) amounted to 9.6 cm; in assay [8] (setting [12]), 8.9 cm; in assay [8] (setting [13]), 8.3 cm. Further, the “effect on rice root length” value in assay [8] (seed treatment with imidacloprid alone) is “decreased the root length in a dose-dependent manner”.
With `O=C(O)CCC(=O)NCCc1ccccc1` [PESA, N-(2-phenylethyl)succinamic acid], the “safening of maize” value in assay [4] (conclusion from Table 12) is recorded as “safened maize against clothianidin-induced vigor reduction”.
